# Molecular target: T1, Ba/F3 cell EGFR Exon20 ins NPH (Homo sapiens, UniProt P00533, INS773NPH)
# T1 construct: expressed in transfected cells; host or cells: Ba/F3
# Experiment: Ba/F3 cell proliferation suppression, EGFR Exon20 ins NPH
# Assay type: cell-based
# Details: GI50 class; Ba/F3 cell line with NPH inserted at Exon20 of EGFR; 72 hours
# How it was run: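 After 72 h compound exposure (twelve 3-fold steps, 0.3 nM–50 um final), live cells were measured by CellTiter-Glo luminescence and growth expressed as % of control to derive GI50. Cells were seeded at 3000–5000 per well a day earlier; Ba/F3 medium contained IL-3; three repeats.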
row,Ba/F3 (NPH) Activity,SMILES
1,B (50 nM ≤ GI50 < 500 nM),"C=CC(=O)Nc1cc(Nc2cc(N3OCC[C@@H]3c3cccc(Cl)c3Cl)ncn2)c(OC)cc1N1CCN(CCN(C)C)CC1 [compound 566, N-(5-((6-((R)-3-(2,3-dichlorophenyl)isoxazolidine-2-yl)pyrimidine-4-yl)amino)-2-(4-(2-(dimethylamino)ethyl)piperazine-1-yl)-4-methoxyphenyl) acrylamide]"
2,B (50 nM ≤ GI50 < 500 nM),"C=CC(=O)Nc1cc(Nc2cc(N3OCC[C@@H]3c3ccc4ccccc4c3)ncn2)c(OC)cc1N1CCC(N2CCN(C(C)C)CC2)CC1 [compound 550, N-(2-(4-(4-isopropylpiperazine-1-yl)piperidine-1-yl)-4-methoxy-5-((6-((R)-3-(naphthalene-2-yl)isoxazolidine-2-yl)pyrimidine-4-yl)amino)phenyl)acrylamide]"
3,C (500 nM ≤ GI50 < 5000 nM),"C=CC(=O)Nc1cc(Nc2cc(N3OCC[C@@H]3c3ccc(F)c(F)c3)ncn2)c(OC)cc1N1CC[C@H](N2CCOCC2)C1 [compound 579, N-(5-((6-((R)-3-(3,4-difluorophenyl)isoxazolidine-2-yl)pyrimidine-4-yl)amino)-4-methoxy-2-((S)-3-morpholinopyrolidine-1-yl)phenyl)acrylamide]"
4,B (50 nM ≤ GI50 < 500 nM),"C=CC(=O)Nc1cc(Nc2cc(N3OCC[C@@H]3c3ccc(F)c(Cl)c3F)ncn2)c(OC)cc1N1CCC(N2CCN(C(C)C)CC2)CC1 [compound 668, N-(5-((6-((R)-3-(3-chloro-2,4-difluorophenyl)isoxazolidine-2-yl)pyrimidine-4-yl)amino)-2-(4-(4-isopropylpiperazine-1-yl)piperidine-1-yl)-4-methoxyphenyl) acrylamide]"
5,A (GI50 < 50 nM),"C=CC(=O)Nc1cc(Nc2cc(N3OCC[C@@H]3c3cccc(Cl)c3)ncn2)c(OC)cc1N1CCC(N2CCN(C3COC3)CC2)CC1 [Example 199, N-(5-((6-((R)-3-(3-chlorophenyl)isoxazolidine-2-yl)pyrimidine-4-yl)amino)-4-methoxy-2-(4-(4-(oxetane-3-yl)piperazine-1-yl)piperidine-1-yl)phenyl)acrylamide]"
6,B (50 nM ≤ GI50 < 500 nM),"C=CC(=O)Nc1cc(Nc2cc(N3OCC[C@@H]3c3cccc(OC)c3)ncn2)c(OC)cc1N1CCC(N2CCC(N(C)C)CC2)CC1 [compound 781, N-(2-(4-(dimethylamino)-[1,4'-bipiperidine]-1'-yl)-4-methoxy-5-((6-((R)-3-(3-methoxyphenyl)isoxazolidine-2-yl)pyrimidine-4-yl)amino)phenyl)acrylamide]"
7,A (GI50 < 50 nM),"C=CC(=O)Nc1cc(Nc2cc(N3OCC[C@@H]3c3ccc(Cl)c(Cl)c3)ncn2)c(OC)cc1N1CCN(C(C)C)CC1 [compound 680, N-(5-((6-((R)-3-(3,4-dichlorophenyl)isoxazolidine-2-yl)pyrimidine-4-yl)amino)-2-(4-isopropylpiperazine-1-yl)-4-methoxyphenyl) acrylamide]"
8,B (50 nM ≤ GI50 < 500 nM),"C=CC(=O)Nc1cc(Nc2cc(N3OCC[C@@H]3c3cccc(OC)c3)ncn2)c(OC)cc1N1CCC(N2CCN(C(C)C)CC2)CC1 [compound 780, N-(2-(4-(4-isopropylpiperazine-1-yl)piperidine-1-yl)-4-methoxy-5-((6-((R)-3-(3-methoxyphenyl)isoxazolidine-2-yl)pyrimidine-4-yl)amino)phenyl)acrylamide]"
9,A (GI50 < 50 nM),"C=CC(=O)Nc1cc(Nc2cc(N3OCC[C@@H]3c3cccc(F)c3F)ncn2)c(OC)cc1N1CCC(N2CCC(F)(F)CC2)CC1 [compound 341, N-(2-(4,4-difluoro-[1,4'-bipiperidine]-1'-yl)-5-((6-((R)-3-(2,3-difluorophenyl)isoxazolidine-2-yl)pyrimidine-4-yl)amino)-4-methoxyphenyl) acrylamide]"
10,A (GI50 < 50 nM),"C=CCN1CCN(C2CCN(c3cc(OC)c(Nc4cc(N5OCC[C@@H]5c5ccc(F)c(F)c5)ncn4)cc3NC(=O)C=C)CC2)CC1 [Example 212, N-(2-(4-(4-allylpiperazine-1-yl)piperidine-1-yl)-5-((6-((R)-3-(3,4-difluorophenyl)isoxazolidine-2-yl)pyrimidine-4-yl)amino)-4-methoxyphenyl) acrylamide]"
11,C (500 nM ≤ GI50 < 5000 nM),"C=CC(=O)Nc1cc(Nc2cc(N3OCC[C@@H]3c3cc(F)cc(F)c3)ncn2)c(OCC)cc1N1CCC(N2CCN(C3CC3)CC2)CC1 [Example 116, N-(2-(4-(4-cyclopropylpiperazine-1-yl)piperidine-1-yl)-5-((6-((R)-3-(3,5-difluorophenyl)isoxazolidine-2-yl)pyrimidine-4-yl)amino)-4-ethoxyphenyl) acrylamide]"
12,A (GI50 < 50 nM),"C=CC(=O)Nc1cc(Nc2cc(N3OCC[C@@H]3c3cccc(Cl)c3Cl)ncn2)c(OC)cc1N1CCN(C(C)=O)CC1 [compound 519, N-(2-(4-acetylpiperazine-1-yl)-5-((6-((R)-3-(2,3-dichlorophenyl)isoxazolidine-2-yl)pyrimidine-4-yl)amino)-4-methoxyphenyl) acrylamide]"
13,B (50 nM ≤ GI50 < 500 nM),"C=CC(=O)Nc1cc(Nc2cc(N3OCC[C@@H]3c3cccc(C)c3F)ncn2)c(OC)cc1N(C)CCOC [compound 319, N-(5-((6-((R)-3-(2-fluoro-3-methylphenyl)isoxazolidine-2-yl)pyrimidine-4-yl)amino)-4-methoxy-2-((2-methoxyethyl) (methyl)amino)phenyl)acrylamide]"
14,A (GI50 < 50 nM),"C=CC(=O)Nc1cc(Nc2cc(N3OCC[C@@H]3c3cc(F)ccc3F)ncn2)c(OC)cc1N1CCC(N2C[C@@H](C)N(CC)[C@@H](C)C2)CC1 [compound 841, N-(5-((6-((R)-3-(2,5-difluorophenyl)isoxazolidine-2-yl)pyrimidine-4-yl)amino)-2-(4-((3S,5R)-4-ethyl-3,5-dimethylpiperazine-1-yl)piperidine-1-yl)-4-methoxyphenyl) acrylamide]"
15,A (GI50 < 50 nM),"C=CC(=O)Nc1cc(Nc2cc(N3OCC[C@@H]3c3cccc(Cl)c3)ncn2)c(OC)cc1N1CCN(C)CC1 [compound 360, N-(5-((6-((R)-3-(3-chlorophenyl)isoxazolidine-2-yl)pyrimidine-4-yl)amino)-4-methoxy-2-(4-methylpiperazine-1-yl)phenyl)acrylamide]"
16,A (GI50 < 50 nM),"C=CC(=O)Nc1cc(Nc2cc(N3OCC[C@@H]3c3ccc(Cl)c(F)c3)ncn2)c(OC)cc1N1CCC(N2C[C@@H]3C[C@H]2CN3CC)CC1 [compound 858, N-(5-((6-((R)-3-(4-chloro-3-fluorophenyl)isoxazolidine-2-yl)pyrimidine-4-yl)amino)-2-(4-((1S,4S)-5-ethyl-2,5-diazabicyclo [2.2.1]heptane-2-yl)piperidine-1-yl)-4-methoxyphenyl) acrylamide]"
17,B (50 nM ≤ GI50 < 500 nM),"C=CC(=O)Nc1cc(Nc2cc(N3OCC[C@@H]3c3c(F)cccc3F)ncn2)c(OC)cc1N1CCC(N2CCN(C3CC3)[C@@H](C)C2)CC1 [Example 136, N-(2-(4-((S)-4-cyclopropyl-3-methylpiperazine-1-yl)piperidine-1-yl)-5-((6-((R)-3-(2,6-difluorophenyl)isoxazolidine-2-yl)pyrimidine-4-yl)amino)-4-methoxyphenyl) acrylamide]"

# — patent publication US12157730B2, “Heteroaryl derivative, method for producing same, and pharmaceutical composition comprising same as effective component” (VORONOI INC., priority 2019, dated 2024)
